Columns and labels:
Format in all cases: in vivo, human
[1] = tested on: patients with atrial flutter; assay: Placebo-controlled ascending dose study of intravenous tedisamil: conversion to normal sinus rhythm, patients with atrial flutter; conditions: for Conversion to NSR at any time within 2.5 hrs after the start of infusion (patients converted out of total) / Conversion to NSR at any time within 2.5 hrs after the start of infusion (percentage of patients) / Conversion to NSR at any time within 2.5 hrs and remaining in NSR until 2.5 hrs after the start of infusion (patients out of total) / Conversion to NSR at any time within 2.5 hrs and remaining in NSR until 2.5 hrs after the start of infusion (percentage of patients) / Conversion to NSR at any time within 2.5 hrs and remaining in NSR until 24 hrs after the start of infusion (patients out of total) / Conversion to NSR at any time within 2.5 hrs and remaining in NSR until 24 hrs after the start of infusion (percentage of patients) / Conversion to NSR at any time within 24 hrs after the start of infusion (patients out of total) / Conversion to NSR at any time within 24 hrs after the start of infusion (percentage of patients) / Conversion to NSR at any time within 24 hrs and remaining in NSR until 24 hrs after the start of infusion (patients out of total) / Conversion to NSR at any time within 24 hrs and remaining in NSR until 24 hrs after the start of infusion (percentage of patients): patients with atrial flutter; for Conversion to NSR at any time within 2.5 hrs after start of infusion (converted/total) / Conversion to NSR at any time within 2.5 hrs after start of infusion (%): Atrial Flutter, ITT patient sample, patients with DC cardioversion excluded
Description: A Multi-Center, Double-Blind, Randomized, Placebo-Controlled, Sequential Ascending Dose Groups Study to evaluate the Efficacy and Safety of Intravenous Tedisamil in the Rapid Conversion to Normal Sinus Rhythm in Patients with Atrial Fibrillation or Flutter was performed.
• Tedisamil (0.4 mg/kg body weight) • Tedisamil (0.6 mg/kg body weight) • Placebo • Dosages were given as a 30 minute intravenous infusion regimen. 1. Study Design
This multicenter trial was a double-blind, randomized, placebo-controlled, ascending dose groups study comparing the efficacy and safety of intravenous tedisamil treatment versus placebo in symptomatic patients with atrial fibrillation or flutter (>3 hours and <48 hours). The primary efficacy endpoint of this study was the termination of atrial fibrillation or flutter (for at least 60 seconds) within 2.5 hours after start of the infusion.
Following screening and baseline assessments, eligible patients were randomized to tedisamil or placebo with a sequential dose escalation approach. In the first stage, patients received 0.4 mg tedisamil/kg body weight or placebo over a 30 minutes infusion period, with half the dose infused during the first 10 minutes and half the dose infused over the remaining 20 minutes. After interim safety evaluation, in the second stage, patients received 0.6 mg tedisamil/kg body weight or placebo, with the same infusion regimen.
Patients were discharged from the telemetry unit 24 hours post infusion and safety follow up was to be obtained after 28 days. Blinded reviews of 12-lead ECGs (including 60 seconds rhythm strip) and 24 hour Holters to adjudicate the clinical endpoint (conversion to normal sinus rhythm) were performed centrally according to standard guidelines.
Tedisamil dihydrochloride, 0.4 mg/kg body weight, 0.6.mg/kg body weight was administered intravenously. The total infusion time was 30 minutes, with half the dose infused within 10 minutes, and half the dose infused within the remaining 20 minutes.
The percentage of patients converted to normal sinus rhythm (for at least 60 seconds) at any time within 2.5 hours after the initiation of the infusion of study drug.
6.1.2 Secondary Efficacy • The percentage of patients converted to normal sinus rhythm (for at least 60 seconds) at any time within 2.5 hrs and remaining in sinus rhythm until 2.5 hours after initiation of the intravenous infusion of tedisamil versus placebo. • The percentage of patients converted to normal sinus rhythm (for at least 60 seconds) at any time within 24 hours after initiation of the intravenous infusion of tedisamil versus placebo. • The percentage of patients converted to normal sinus rhythm (for at least 60 seconds) at any time within 24 hrs and remaining in sinus rhythm until 24 hours after initiation of the intravenous infusion of tedisamil versus placebo. • The percentage of patients converted to normal sinus rhythm (for at least 60 seconds) at any time within 2.5 hrs and remaining in sinus rhythm until 24 hours after initiation of the intravenous infusion of tedisamil versus placebo. • The time to conversion after the start of the infusion of tedisamil versus placebo. • The dose- and concentration-response relationships of tedisamil versus placebo.
The intent-to-treat patient sample was analyzed for efficacy. All tests were two-sided and a p-value <0.05 was considered significant. Differences in percentages of conversion were compared among the treatment groups using the Pearson chi-square statistic. Safety analysis was conducted on the safety patient sample. Numbers and percentages of patients with adverse events were calculated for each treatment group, using MedDRA preferred terms and body systems. Descriptive statistics were summarized by treatment group for changes from baseline in QT, heart rate and blood pressure. […]

AF/AFL patients = assay: Single infusion over 10 minutes in AF/AFL patients; conditions: intravenous doses of up to 0.24 mg/kg TEDI base, infused over 10 minutes
[2] = tested on: subjects with recent onset atrial fibrillation or flutter; assay: Phase III study of intravenous tedisamil sesquifumarate in subjects with recent onset atrial fibrillation or flutter; conditions: second study (Phase III)
Description: This second clinical study was a Multi-Center, Double-Blind, Randomized, Placebo-Controlled, Parallel Design Study to evaluate the Efficacy and Safety of Intravenous Tedisamil Sesquifumarate in the Rapid Conversion to Normal Sinus Rhythm in Subjects with Recent Onset Atrial Fibrillation or Flutter.
The active ingredient used was tedisamil sesqifumarate. […] Study duration: Screening: up to 48 hours; treatment (in-patient): single 30-minute infusion; safety follow up: 24 hours (in-patient) with continuous telemetry and 28 day safety follow up. […]

[3] = 0.4 mg/kg iv two-step 30 minute infusion
[4] = 0.6 mg/kg iv two-step 30 minute infusion

## C1CCC2(C1)C1CN(CC3CC3)CC2CN(CC2CC2)C1 [Tedisamil, N,N′-dicyclopropylmethyl-9,9-tetramethylene-3,7-diazabicyclo[3,3,1]nonane]
[1]; [3]
  Conversion to NSR at any time within 2.5 hrs after the start of infusion (patients converted out of total): 1 out of 9
  Conversion to NSR at any time within 2.5 hrs after the start of infusion (percentage of patients): (11%)
  Conversion to NSR at any time within 2.5 hrs and remaining in NSR until 2.5 hrs after the start of infusion (patients out of total): 1 out of 9
  Conversion to NSR at any time within 2.5 hrs and remaining in NSR until 2.5 hrs after the start of infusion (percentage of patients): (11%)
  Conversion to NSR at any time within 2.5 hrs and remaining in NSR until 24 hrs after the start of infusion (patients out of total): 1 out of 7
  Conversion to NSR at any time within 2.5 hrs and remaining in NSR until 24 hrs after the start of infusion (percentage of patients): (14%)
  Conversion to NSR at any time within 24 hrs after the start of infusion (patients out of total): 2 out of 7
  Conversion to NSR at any time within 24 hrs after the start of infusion (percentage of patients): (29%)
  Conversion to NSR at any time within 24 hrs and remaining in NSR until 24 hrs after the start of infusion (patients out of total): 2 out of 7
  Conversion to NSR at any time within 24 hrs and remaining in NSR until 24 hrs after the start of infusion (percentage of patients): (29%)
[1]; 0.4 mg/kg iv two-step 30 minute infusion, listed as tedisamil
  Conversion to NSR at any time within 2.5 hrs after the start of infusion (percentage of patients): 11%
[1]; [4]
  Conversion to NSR at any time within 2.5 hrs after the start of infusion (patients converted out of total): 3 out of 11
  Conversion to NSR at any time within 2.5 hrs after the start of infusion (percentage of patients): (27%)
  Conversion to NSR at any time within 2.5 hrs and remaining in NSR until 2.5 hrs after the start of infusion (patients out of total): 3 out of 11
  Conversion to NSR at any time within 2.5 hrs and remaining in NSR until 2.5 hrs after the start of infusion (percentage of patients): (27%)
  Conversion to NSR at any time within 2.5 hrs and remaining in NSR until 24 hrs after the start of infusion (patients out of total): 3 out of 7
  Conversion to NSR at any time within 2.5 hrs and remaining in NSR until 24 hrs after the start of infusion (percentage of patients): (43%)
  Conversion to NSR at any time within 24 hrs after the start of infusion (patients out of total): 3 out of 7
  Conversion to NSR at any time within 24 hrs after the start of infusion (percentage of patients): (43%)
  Conversion to NSR at any time within 24 hrs and remaining in NSR until 24 hrs after the start of infusion (patients out of total): 3 out of 7
  Conversion to NSR at any time within 24 hrs and remaining in NSR until 24 hrs after the start of infusion (percentage of patients): (43%)
[1]; 0.6 mg/kg iv two-step 30 minute infusion, listed as tedisamil
  Conversion to NSR at any time within 2.5 hrs after the start of infusion (percentage of patients): 27%
[1]; Female, 0.4 mg/kg
  Conversion to NSR at any time within 2.5 hrs after start of infusion (converted/total): 0/2
[1]; Female, 0.6 mg/kg
  Conversion to NSR at any time within 2.5 hrs after start of infusion (%): 33.3%
  Conversion to NSR at any time within 2.5 hrs after start of infusion (converted/total): 2/6
[1]; Male, 0.4 mg/kg
  Conversion to NSR at any time within 2.5 hrs after start of infusion (%): 14.3%
  Conversion to NSR at any time within 2.5 hrs after start of infusion (converted/total): 1/7
[1]; Male, 0.6 mg/kg
  Conversion to NSR at any time within 2.5 hrs after start of infusion (%): 20.0%
  Conversion to NSR at any time within 2.5 hrs after start of infusion (converted/total): 1/5
AF/AFL patients
  Conversions in AF/AFL patients: did not produce any conversions
[2]
  Gender difference in conversion rate: male patients show a higher conversion rate compared to women

From US7087620B2, “Liquid pharmaceutical formulations containing 3,7-diazabicyclo[3,3,1]nonane compounds and methods of treatment relating to anti-arrhythmic events” (Solvay Pharmaceuticals GmbH, priority 2002, dated 2006)
